Results published in patent US20250206718A1, “NITROGEN-CONTAINING HETEROCYCLIC DERIVATIVE INHIBITOR, PREPARATION METHOD THEREFOR AND USE THEREOF” (SHANGHAI HANSOH BIOMEDICAL CO., LTD., priority 2022, published 2025).

Target: Ba/F3 EGFR Del19/C797S cells (Homo sapiens, UniProt P00533, C797S, cells depend on it, form not given)
Experiment: Cell proliferation inhibition (Cell Titer-Glo), Ba/F3 EGFR Del19/C797S
Format: cell-based, mouse
Details: 72 hours, CellTiter-Glo, read-out: Ba/F3 EGFR Del19/C797S IC50
Description: Experimental objective: The objective of this test example is to test the inhibitory activity of compounds on the proliferation of different EGFR C797S drug-resistant mutant cell lines Ba/F3 EGFR Del19/T790M/C797S, Ba/F3 EGFR L858R/T790M/C797S, and Ba/F3 EGFR Del19/C797S.
• Ba/F3 EGFR Del19/T790M/C797S cells were purchased from KYinno Biotechnology Co., Ltd.; • Ba/F3 EGFR Del19/C797S cells were purchased from CoBioer Biosciences Co., Ltd.; • Ba/F3 EGFR L858R/T790M/C797S cells were purchased from CoBioer Biosciences Co., Ltd.; • Cell Titer-Glo was purchased from Promega, with a catalog number of G7573; • RPMI 1640 was purchased from Gibco, with a catalog number of 22400089; • FBS was purchased from Gibco, with a catalog number of 10091148; • cell culture plates were purchased from Corning, with a catalog number of 3610.
The inhibitory activity of the compound on the proliferation of different EGFR C797S drug-resistant mutant cell lines was detected using the Cell Titer-Glo method. The different cell lines were cultured in RPMI 1640 complete culture medium containing 10% FBS under conditions of 37° C. and 5% CO2, the cells were collected by centrifugation when growing to a certain density, and adjusted to appropriate cell density after counting, the cells were spread on a white 96-well plate at 90 μL/well, and cultured in a 37° C., 5% CO2 incubator overnight, prepared compound solutions of different concentrations were added at 10 μL/well, corresponding solvent controls were set, and all wells were cultured in a 37° C., 5% CO2 incubator for 72 hours, 50 μL of CellTiter-Glo solution was added to each well, shook and mixed evenly, and incubated in the dark for 10 minutes, and a BioTek Synergy H1 microplate reader was used for reading.
The luminescence signal value was used to calculate the inhibition rate. Graphpad Prism software was used to fit the concentration and inhibition rate to a nonlinear regression curve, so as to obtain the IC50 value, as shown in the Table below for details.

Sequence of Ba/F3 EGFR Del19/C797S cells (P00533 with tags, fused parts or gaps DEL746-750/C797S, form open): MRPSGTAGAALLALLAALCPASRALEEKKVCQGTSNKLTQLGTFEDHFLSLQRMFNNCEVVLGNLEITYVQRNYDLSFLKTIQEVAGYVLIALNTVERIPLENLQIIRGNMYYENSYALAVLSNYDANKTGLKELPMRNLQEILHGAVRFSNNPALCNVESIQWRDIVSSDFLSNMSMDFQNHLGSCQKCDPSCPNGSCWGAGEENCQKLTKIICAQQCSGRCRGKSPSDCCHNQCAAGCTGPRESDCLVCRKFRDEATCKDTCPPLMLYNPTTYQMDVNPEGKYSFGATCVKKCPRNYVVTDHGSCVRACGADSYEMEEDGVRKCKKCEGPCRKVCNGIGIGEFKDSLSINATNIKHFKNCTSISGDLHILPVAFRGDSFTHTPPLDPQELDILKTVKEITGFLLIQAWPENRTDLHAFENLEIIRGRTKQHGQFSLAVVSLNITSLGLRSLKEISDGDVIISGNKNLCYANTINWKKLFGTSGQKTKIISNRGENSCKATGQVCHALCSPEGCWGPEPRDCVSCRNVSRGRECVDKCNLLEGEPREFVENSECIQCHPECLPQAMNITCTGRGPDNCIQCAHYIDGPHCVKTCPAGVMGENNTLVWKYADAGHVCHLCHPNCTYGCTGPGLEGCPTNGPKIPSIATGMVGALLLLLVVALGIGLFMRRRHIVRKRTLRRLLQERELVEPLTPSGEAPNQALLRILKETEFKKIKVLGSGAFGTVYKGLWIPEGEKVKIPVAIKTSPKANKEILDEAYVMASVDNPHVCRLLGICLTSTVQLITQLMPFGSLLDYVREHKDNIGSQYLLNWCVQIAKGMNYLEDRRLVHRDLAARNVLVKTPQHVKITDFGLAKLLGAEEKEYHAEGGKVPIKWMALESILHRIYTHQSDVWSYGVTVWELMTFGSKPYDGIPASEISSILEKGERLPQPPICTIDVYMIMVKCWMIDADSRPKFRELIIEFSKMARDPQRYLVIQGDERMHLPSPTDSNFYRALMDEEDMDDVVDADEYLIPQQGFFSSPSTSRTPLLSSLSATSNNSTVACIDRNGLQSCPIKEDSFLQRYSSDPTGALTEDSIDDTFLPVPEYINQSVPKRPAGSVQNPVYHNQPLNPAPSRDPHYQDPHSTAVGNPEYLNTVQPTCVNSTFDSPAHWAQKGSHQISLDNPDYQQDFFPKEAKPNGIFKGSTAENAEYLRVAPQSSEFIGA

SMILES	GI50
CC(C)c1ccc(N2C[C@H](CS(C)(=O)=O)[C@H]2C)c2cnc(Nc3ccnc(-c4cn(C5CC5)nc4F)n3)cc12 [Example 9, N-(2-(1-cyclopropyl-3-fluoro-1H-pyrazol-4-yl)pyrimidin-4-yl)-5-isopropyl-8-((2R,3S)-2-methyl-3-((methylsulfonyl)methyl)azetidin-1-yl)isoquinolin-3-amine]	57 nM
CC(C)c1ccc(N2CC(N=S(C)(C)=O)C2)c2cnc(Nc3ccnc(-c4cn(C)nc4Cl)n3)cc12 [Example 102, ((1-(3-((2-(3-chloro-1-methyl-1H-pyrazol-4-yl)pyrimidin-4-yl)amino)-5-isopropylisoquinolin-8-yl)azetidin-3-yl)imino)dimethyl-16-sulfanone]	73 nM
CC(C)c1ccc(N2C[C@H](CS(C)(=O)=O)[C@H]2C)c2cnc(Nc3ccnc(-c4cn(C(C)(C)C#N)nc4Cl)n3)cc12 [Example 112, 2-(3-chloro-4-(4-((5-isopropyl-8-((2R,3S)-2-methyl-3-((methanesulfonyl)methyl)azetidin-1-yl)isoquinolin-3-yl)amino)pyrimidin-2-yl)-1H-pyrazol-1-yl)-2-methylpropanenitrile]	52 nM
CC(C)c1ccc(N2C[C@H](CS(C)(=O)=O)[C@H]2C)c2cnc(Nc3ccnc(-c4cn(CC(O)C(F)(F)F)nc4Cl)n3)cc12 (stereo partly drawn) [Example 113, 3-(3-chloro-4-(4-((5-isopropyl-8-((2R,3S)-2-methyl-3-((methanesulfonyl)methyl)azetidin-1-yl)isoquinolin-3-yl)amino)pyrimidin-2-yl)-1H-pyrazol-1-yl)-1,1,1-trifluoropropan-2-ol]	60 nM
CC(=O)Cn1cc(-c2nccc(Nc3cc4c(C(C)C)ccc(N5C[C@H](CS(C)(=O)=O)[C@H]5C)c4cn3)n2)c(Cl)n1 [Example 114, 1-(3-chloro-4-(4-((5-isopropyl-8-((2R,3S)-2-methyl-3-((methanesulfonyl)methyl)azetidin-1-yl)isoquinolin-3-yl)amino)pyrimidin-2-yl)-1H-pyrazol-1-yl)propan-2-one]	39 nM
CC(C)c1ccc(N2C[C@H](CS(C)(=O)=O)[C@H]2C)c2cnc(Nc3ccnc(-c4cn(C(C)C#N)nc4Cl)n3)cc12 (stereo partly drawn) [Example 115, 2-(3-chloro-4-(4-((5-isopropyl-8-((2R,3S)-2-methyl-3-((methanesulfonyl)methyl)azetidin-1-yl)isoquinolin-3-yl)amino)pyrimidin-2-yl)-1H-pyrazol-1-yl)propanenitrile]	73 nM
Cc1nn(C)cc1-c1nccc(Nc2cc3c(C(C)C)c(F)cc(N4CC(N(C)S(C)(=O)=O)C4)c3cn2)n1 [Example 129, N-(1-(3-((2-(1,3-dimethyl-1H-pyrazol-4-yl)pyrimidin-4-yl)amino)-6-fluoro-5-isopropylisoquinolin-8-yl)azetidin-3-yl)-N-methyl methanesulfonamide]	22 nM
CC(C)c1ncc(N2C[C@H](CS(C)(=O)=O)[C@H]2C)c2cnc(Nc3ccnc(-c4cn(C)nc4Cl)n3)cc12 [Example 133, N-(2-(3-chloro-1-methyl-1H-pyrazol-4-yl)pyrimidin-4-yl)-5-isopropyl-8-((2R,3S)-2-methyl-3-((methanesulfonyl)methyl)azetidin-1-yl)-2,6-diazanaphthalen-3-amine]	27 nM
CC(C)c1ccc(N2C[C@H](CS(C)(=O)=O)[C@H]2C)c2cnc(Nc3ccnc(-c4cn(C5CC6(COC6)C5)nc4Cl)n3)cc12 [Example 141, N-(2-(3-chloro-1-(2-oxaspiro[3.3]heptan-6-yl)-1H-pyrazol-4-yl)pyrimidin-4-yl)-5-isopropyl-8-((2R,3S)-2-methyl-3-((methanesulfonyl)methyl)azetidin-1-yl)isoquinolin-3-amine]	64 nM
CC(C)c1ccc(N2C[C@H](CS(C)(=O)=O)[C@H]2C)c2cnc(Nc3ccnc(-c4cn([C@H]5CCOC5)nc4Cl)n3)cc12 [Example 142, N-(2-(3-chloro-1-((S)-tetrahydrofuran-3-yl)-1H-pyrazol-4-yl)pyrimidin-4-yl)-5-isopropyl-8-((2R,3S)-2-methyl-3-((methanesulfonyl)methyl)azetidin-1-yl)isoquinolin-3-amine]	41 nM
CC(C)c1ccc(N2C[C@H](CS(C)(=O)=O)[C@H]2C)c2cnc(Nc3ccnc(-c4cn([C@@H]5CCOC5)nc4Cl)n3)cc12 [Example 143, N-(2-(3-chloro-1-((R)-tetrahydrofuran-3-yl)-1H-pyrazol-4-yl)pyrimidin-4-yl)-5-isopropyl-8-((2R,3S)-2-methyl-3-((methanesulfonyl)methyl)azetidin-1-yl)isoquinolin-3-amine]	30 nM
CC(C)c1ccc(N2C[C@H](CS(C)(=O)=O)[C@H]2C)c2cnc(Nc3ccnc(-c4cn(C[C@H]5CCCO5)nc4Cl)n3)cc12 [Example 144, N-(2-(3-chloro-1-(((R)-tetrahydrofuran-2-yl)methyl)-1H-pyrazol-4-yl)pyrimidin-4-yl)-5-isopropyl-8-((2R,3S)-2-methyl-3-((methanesulfonyl)methyl)azetidin-1-yl)isoquinolin-3-amine]	26 nM
CC(C)c1ccc(N2C[C@H](CS(C)(=O)=O)[C@H]2C)c2cnc(Nc3ccnc(-c4cn(C[C@@H]5CCCO5)nc4Cl)n3)cc12 [Example 145, N-(2-(3-chloro-1-(((S)-tetrahydrofuran-2-yl)methyl)-1H-pyrazol-4-yl)pyrimidin-4-yl)-5-isopropyl-8-((2R,3S)-2-methyl-3-((methanesulfonyl)methyl)azetidin-1-yl)isoquinolin-3-amine]	45 nM
CC(C)c1ccc(N2C[C@H](CS(C)(=O)=O)[C@H]2C)c2cnc(Nc3ccnc(-c4cn(C[C@H]5CCN5C)nc4Cl)n3)cc12 [Example 146, N-(2-(3-chloro-1-(((R)-1-methylazetidin-2-yl)methyl)-1H-pyrazol-4-yl)pyrimidin-4-yl)-5-isopropyl-8-((2R,3S)-2-methyl-3-((methanesulfonyl)methyl)azetidin-1-yl)isoquinolin-3-amine]	80 nM

Now those with a lower GI50, led by results:

GI50	SMILES
17 nM	Cc1nn(C)cc1-c1nccc(Nc2cc3c(C(C)C)ccc(N4CC(N(C)S(C)(=O)=O)C4)c3cn2)n1 [Example 71, N-(1-(3-((2-(1,3-dimethyl-1H-pyrazol-4-yl)pyrimidin-4-yl)amino)-5-isopropylisoquinolin-8-yl)azetidin-3-yl)-N-methyl methanesulfonamide]
14 nM	CC(C)c1ccc(N2C[C@H](N3CCOC3=O)[C@H]2C)c2cnc(Nc3ccnc(-c4cn(C)nc4Cl)n3)cc12 [Example 109, 3-((2R,3S)-1-(3-((2-(3-chloro-1-methyl-1H-pyrazol-4-yl)pyrimidin-4-yl)amino)-5-isopropylisoquinolin-8-yl)-2-methylazetidin-3-yl)oxazolidin-2-one]
14 nM	CC(C)c1c(F)cc(N2CC(N(C)S(C)(=O)=O)C2)c2cnc(Nc3ccnc(-c4cn(C)nc4Cl)n3)cc12 [Example 124, N-(1-(3-((2-(3-chloro-1-methyl-1H-pyrazol-4-yl)pyrimidin-4-yl)amino)-6-fluoro-5-isopropylisoquinolin-8-yl)azetidin-3-yl)-N-methyl methanesulfonamide]
7.4 nM	CC(C)c1ncc(N2CC(N(C)S(C)(=O)=O)C2)c2cnc(Nc3ccnc(-c4cn(C)nc4Cl)n3)cc12 [Example 131, N-(1-(7-((2-(3-chloro-1-methyl-1H-pyrazol-4-yl)pyrimidin-4-yl)amino)-1-isopropyl-2,6-diazanaphthalen-4-yl)azetidin-3-yl)-N-methyl methanesulfonamide]
6 nM	Cc1nn(C)cc1-c1nccc(Nc2cc3c(C(C)C)ncc(N4C[C@H](N(C)S(C)(=O)=O)[C@H]4C)c3cn2)n1 [Example 61, N-((2R,3S)-1-(7-((2-(1,3-dimethyl-1H-pyrazol-4-yl)pyrimidin-4-yl)amino)-1-isopropyl-2,6-diazanaphthalen-4-yl)-2-methylazetidin-3-yl)-N-methyl methanesulfonamide]
5.6 nM	Cc1nn(C)cc1-c1nccc(Nc2cc3c(C(C)C)ncc(N4CC(N(C)S(C)(=O)=O)C4)c3cn2)n1 [Example 60, N-(1-(7-((2-(1,3-dimethyl-1H-pyrazol-4-yl)pyrimidin-4-yl)amino)-1-isopropyl-2,6-diazanaphthalen-4-yl)azetidin-3-yl)-N-methyl methanesulfonamide]
5 nM	CC(C)c1ncc(N2C[C@H](N(C)S(C)(=O)=O)[C@H]2C)c2cnc(Nc3ccnc(-c4cn(C)nc4Cl)n3)cc12 [Example 59, N-((2R,3S)-1-(7-((2-(3-chloro-1-methyl-1H-pyrazol-4-yl)pyrimidin-4-yl)amino)-1-isopropyl-2,6-diazanaphthalen-4-yl)-2-methylazetidin-3-yl)-N-methyl methanesulfonamide]
